From patent US7045533B2, “Naphthalene derivatives” (Novartis AG, priority 2000, dated 2006)

Tests used:
[1] = test system: Wistar rats; experiment: Test II: Neuropathic Pain Model (partial ligation of the sciatic nerve, mechanical hyperalgesia); assay type: in vivo; conditions: p.o.; dose necessary to produce 50% reversal of hyperalgesia; rat
Description: Test II: Neuropathic Pain Model
Hyperalgesia is examined in the model of neuropathic pain Induced by partial ligation of the sciatic nerve as described by Seltzer et al. (1990). Briefly, Wistar rats (120–140 g) are anaesthetised, the left sciatic nerve exposed at mid-thigh level through a small incision and ⅓ to ½ of the nerve thickness tightly ligated within a 7.0 silk suture. The wound is closed with a single muscle suture and skin clips and dusted with Aureomycin antibiotic powder. The animals are allowed to recover and used 12–15 days following surgery.
Mechanical hyperalgesia is assessed by measuring paw withdrawal thresholds to an increasing pressure stimulus placed onto the dorsal surface of the paw using an analgesymeter (Ugo-Basile, Milan) with a cut-off of 250 g. Withdrawal thresholds are measured on both the ipsilateral (ligated) and contralateral (unligated) paw prior to (predose) and then up to 6 h following drug or vehicle administration. Data are expressed as withdrawal threshold (g) and percentage reversal of hyperalgesia calculated according to the following formula: […]
Potency is expressed as D50 value, i.e. the dose of compound necessary to produce 50% reversal of hyperalgesia.

Structure (SMILES) | melting point [°C] | D50 value in the neuropathic pain model [1] [mg/kg]
CCCCCOc1ccc(C(=O)Oc2cccc3ccccc23)c2ccccc12 | 95 to 100 | –
CCCCCOc1ccc(S(=O)(=O)N2CCCc3ccccc32)c2ccccc12 | 78 to 80 | –
CCCCCOc1ccc(S(=O)(=O)c2cccc3ccccc23)c2ccccc12 | 143 to 144 | –
CCCCCOc1ccc(C(=O)c2cccc3ccccc23)c2ccccc12 [Example 1, naphthalen-1-yl-(4-pentyloxy-naphthalen-1-yl)-methanone] | – | 0.18
CCCCCOc1ccc([S+]([O-])c2cccc3ccccc23)c2ccccc12 (centres unmarked) | 88 to 91 | –
